From patent US20250304608A1, “PHOSPHORUS COMPOUND AND USE THEREOF” (SHANGHAI SHIJIANG BIOTECHNOLOGY CO., LTD., priority 2022, published 2025) come the findings set out here.

Like-named read-outs stand apart in the source and are kept apart here.

One assay deals with Daoy cell. Kind of assay: TMRM mitochondria membrane potential in Daoy cell after CsA / H2O2 treatment. Conditions: untreated = 100. Type of assay: cell-based, human. The source says:
The mitochondria permeability transition pore (mPTP) was a non-specific channel on the inner membrane of mitochondria, which could allow small molecules with molecular less than 1.5KD to pass freely, and its activity was affected by peroxides (such as H2O2), pH and calcium ions in mitochondria. […] For cells with active mitochondria permeability transition pore, adding peroxide (such as H2O2) could increase the activity of mitochondria permeability transition pore, resulting in a decrease in mitochondna membrane potential.

The subject of assay [1] is Daoy cell transfected with empty virus vector without carrying shRNA. Kind of assay: TMRM mitochondria membrane potential in Daoy cell transfected with empty virus vector (Con shRNA). Type of assay: cell-based, human. Conditions: H2O2 +, CsA −, untreated = 100.
The subject of assay [2] is Daoy cell transfected with virus vector carrying shRNA that induces degradation of PPIF mRNA. Kind of assay: TMRM mitochondria membrane potential in Daoy cell transfected with PPIF shRNA. Type of assay: cell-based, human. Conditions: H2O2 +, CsA −, untreated = 100.
A further assay relates to mPTP-active Daoy cell. The assay is described as follows: CellTiter-Glo cell viability inhibition, mPTP-active Daoy cell. The class given is cell-based. Conditions: Homo sapiens.
Another assay has as its system mPTP-inactive Daoy cell. Kind of assay: CellTiter-Glo cell viability inhibition, mPTP-inactive Daoy cell. Type of assay: cell-based. Conditions: Homo sapiens, Daoy cell transfected with PPIF shRNA vector.
The test system of the next assay is Con-NCI-H82 cell. The assay is described as follows: CellTiter-Glo cell viability inhibition, Con-NCI-H82 cell. The class given is cell-based. Conditions: Homo sapiens, NCI-H82 cell transfected with empty virus vector. The text has this:
(§1) The expression of NNMT protein in NCI-H82 cell was overexpressed by inserting the NNMT gene into NCI-H82 cell using a viral vector, and the NNMT protein-overexpressing NCI-H82 cell (ov-NNMT NCI-H82 cell) was obtained. The control NCI-H82 cell (Con-NCI-H82 cell) was obtained by transfecting NCI-H82 cell with empty virus vector without carrying NNMT gene. The expressing content of NNMT protein in the Con-NCI-H82 cell and ov-NNMT NCI-H82 cell was detected using Western Blot assay (as shown in FIG. 3), it could be seen from FIG. 3 that the NNMT protein was overexpressed in the ov-NNMT NCI-H82 cell compared with the expression level of NNMT protein in the Con-NCI-H82 cell.

In a further assay the test system is ov-NNMT NCI-H82 cell. Kind of assay: CellTiter-Glo cell viability inhibition, ov-NNMT NCI-H82 cell. The class given is cell-based. Conditions: Homo sapiens, NCI-H82 cell overexpressing NNMT protein.
Text: as §1

Where [3] appears, read: Daoy cell transfected with empty virus vector, CellTiter-Glo, read-out: mPTP-active Daoy cell (IC50).

As for `OO` [Compound H2O2, H2O2], the “Relative TMRM signal intensity (%) in Daoy cell, mean value” with Daoy cell is 82%. Besides, the “Relative TMRM signal intensity (%), mean value” in assay [1] amounted to 79%; in assay [2], 95%.

Turning to `c1ccc([P+](CC[P+](c2ccccc2)(c2ccccc2)c2ccccc2)(c2ccccc2)c2ccccc2)cc1` [SJ00003], the 50% inhibitory concentration (IC50) is 4.91 µM in the assay with mPTP-active Daoy cell (setting [3]), 5180 nM in the assay with mPTP-inactive Daoy cell, 3.24 µM with Con-NCI-H82 cell and 2.98 µM with ov-NNMT NCI-H82 cell.

Regarding `[C-]#[N+]N=P(c1ccccc1)(c1ccccc1)c1ccccc1` [SJ00004], the IC50 in the assay with mPTP-active Daoy cell (setting [3]) came to 9.01 µM; in the assay with mPTP-inactive Daoy cell it was 7990 nM; in the assay on Con-NCI-H82 cell, 5.51 µM; with ov-NNMT NCI-H82 cell it was 5.32 µM.

With `CCCCCCCCCCCC[P+](c1ccccc1)(c1ccccc1)c1ccccc1` [SJ00005], the IC50 with mPTP-active Daoy cell (Daoy, read-out: mPTP-active Daoy cell (IC50, μM)) was 0.32 µM; with mPTP-inactive Daoy cell, 330 nM; in the assay on Con-NCI-H82 cell, 0.19 µM; in the assay with ov-NNMT NCI-H82 cell, 0.17 µM.

In the case of `CCCCCCCCCCCCCC[P+](c1ccccc1)(c1ccccc1)c1ccccc1` [SJ00006], the IC50 with mPTP-active Daoy cell (setting [3]) worked out at 0.29 µM; in the assay on mPTP-inactive Daoy cell, 340 nM; in the assay with Con-NCI-H82 cell, 0.13 µM; in the assay with ov-NNMT NCI-H82 cell, 0.14 µM.
